Patent publication US12091402B2 (Avilar Therapeutics, Inc., priority 2021, dated 2024)
Like-named read-outs stand apart in the source and are kept apart here.

Legend:
[1] = biological target: T1, TNF (Homo sapiens, UniProt P01375); assay: Western blot of TNF degradation over time (Example 11, FIG. 24); format: cell-based; conditions: 0.5 μM compound
[2] = biological target: T1, TNF; assay: Western blot of ASGPR mediated uptake of TNF (Example 12, FIG. 25); format: cell-based
[3] = biological target: TNFα (Homo sapiens, UniProt P01375); assay: TNF FP assay; format: binding; conditions: TNF 20 nM, 25° C., 2 hours; read-out: TNFα FP IC50 KD
Chain of TNFα (P01375 77-233 limits assumed): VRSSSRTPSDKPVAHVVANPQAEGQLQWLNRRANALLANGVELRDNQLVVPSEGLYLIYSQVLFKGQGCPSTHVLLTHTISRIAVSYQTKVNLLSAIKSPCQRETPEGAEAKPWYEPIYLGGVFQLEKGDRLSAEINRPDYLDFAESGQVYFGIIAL
Procedure: TNF (20 nM) and Compound 36 in 47 mM HEPES pH 6.5, 47 mM NaCl, 0.9 mM EDTA, 0.007% Triton X-100 were incubated at 25° C. for 2 hours. Fluorescence data was read with an Envision and plotted versus Compound 36 concentration and fit to a single-site binding model. This assay was used to calculate the FP data in Table 7.

[4] = biological target: T2, ASGPR (Homo sapiens, UniProt P07306); assay: Affinity to ASGPR by surface plasmon resonance (SPR)
T2 sequence (P07306 1-291): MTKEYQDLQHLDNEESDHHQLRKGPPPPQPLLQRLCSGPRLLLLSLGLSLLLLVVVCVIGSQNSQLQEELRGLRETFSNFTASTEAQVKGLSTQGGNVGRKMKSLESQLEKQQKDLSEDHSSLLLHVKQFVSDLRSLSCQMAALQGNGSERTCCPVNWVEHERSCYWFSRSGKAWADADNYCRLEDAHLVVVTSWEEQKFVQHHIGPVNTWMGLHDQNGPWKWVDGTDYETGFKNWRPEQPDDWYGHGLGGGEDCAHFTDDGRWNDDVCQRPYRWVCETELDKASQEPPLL

[5] = test system: IgG-AF488; assay: Western blot of IgG-AF488 degradation (Example 5, FIG. 10); format: cell-based
[6] = test system: DNP-IgG; assay: Colocalization imaging of DNP-IgG uptake (Example 4, FIG. 11); format: cell-based
[7] = biological target: T3, ASGPR receptor on the cell surface (HepG2 cells) (Homo sapiens, UniProt P07306); assay: Ternary complex formation assay (flow cytometry, HepG2); format: cell-based; conditions: HepG2 cells
T3 construct: host or cells: HepG2
T3 sequence (P07306 1-291): T2 sequence (P07306 1-291)
T3 sequence (P07307 1-311 partner): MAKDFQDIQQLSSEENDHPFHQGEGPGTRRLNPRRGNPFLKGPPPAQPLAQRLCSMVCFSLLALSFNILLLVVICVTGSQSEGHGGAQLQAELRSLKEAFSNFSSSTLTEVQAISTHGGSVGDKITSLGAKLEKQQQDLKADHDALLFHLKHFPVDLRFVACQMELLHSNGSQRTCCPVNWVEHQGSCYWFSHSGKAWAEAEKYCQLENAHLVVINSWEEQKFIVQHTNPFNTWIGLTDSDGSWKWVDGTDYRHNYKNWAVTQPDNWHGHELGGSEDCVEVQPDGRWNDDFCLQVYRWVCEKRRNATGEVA
How it was run: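 HepG2 cells (1×10^5/well) incubated 1 h at 4 °C with 100 nM AF488-labeled anti-human IgG plus serial IgG-based degrader, or 100 nM AF488 rabbit anti-DNP plus serial DNP-based degrader. After washing, cell-associated AF488 MFI read by flow cytometry; peak MFI marks optimal degrader concentration for ternary complex.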

[8] = test system: HepG2 cells; assay: Cellular uptake assay of AF488-labeled antibody (HepG2); format: cell-based
How it was run: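 HepG2 cells given 100 nM AF488-labeled human IgG or DNP antibody plus serial dilutions of matching degrader (0.1% DMSO final), 6 h at 37° C. Methanol-fixed, DAPI-stained and imaged by high-content analysis. Value is the fraction of AF488-positive cells over total DAPI-counted cells.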

[9] = test system: HepG2 cells; assay: Cellular co-localization study (LAMP2 immunofluorescence); format: cell-based; conditions: 100 nM compound, 100 nM AF488-labeled DNP antibodies, 8 hours, FIG. 4
Procedure: To confirm that DNP-IgG was trafficked to the lysosome following uptake by the HepG2 cells, cells were stained with the lysosomal marker LAMP2, and the subcellular location of AF488-labeled DNP-IgG was visualized by immunofluorescence microscopy.
HepG2 cells were plated in DMEM supplemented with 10% FBS incubated for approximately 18 hours at 37° C./5% CO2. AF488-labeled DNP antibodies (100 nM) and either DMSO or 100 nM of Compound 28 were added to the cells and incubated at 37° C. for an additional 8 hours. Cells were fixed with 100% methanol for 20 minutes at −20° C. followed by incubation with blocking buffer (1×PBS containing 5% normal goat serum and 0.1% Triton X-100) for 1 hour at room temperature. Cells were stained with anti-LAMP2 (Abcam) at 4° C. for about 18 hours followed by treatment with goat anti-mouse IgG-AF647 for 2 hours at room temperature. Nuclei were stained with DAPI. Pictures were taken on a Leica fluorescence microscope at 40× magnification.

[10] = test system: HepG2 cells; assay: Cellular degradation assay of anti-DNP-AF488 antibody; format: cell-based; conditions: 0.2 μM compound, 1 μM anti-DNP-AF488, 16 hours uptake then wash, FIG. 3
Procedure: To observe degradation of IgG in cells, a mixture of fluorescently labeled DNP antibody and compound are added to HepG2 cells and cellular uptake occurs over 16 hours. Cells are then washed to remove extracellular antibody and compound and samples are taken at various time points after uptake to detect levels of intact and/or proteolytic fragments of the antibody heavy and light chains over time as a kinetic measurement of antibody degradation.
HepG2 cells were seeded in DMEM supplemented with 10% FBS into a 12-well plate at a final amount of 20,000 cells per well. After about 18 hours incubation, 1 μM anti-DNP-AF488 antibody and/or 0.2 μM Compound 28 was added to the cells and incubated for 16 hours. The next day, cells were washed once with cell culture media and replaced with cell culture medium lacking anti-DNP-AF488 antibody or Compound 28 and incubated for 0, 1, 2, 4, and 8 hours, respectively. Cells were washed and lysed in RIPA buffer with protease inhibitors. Cell lysates were separated by SDS-PAGE and the fluorescent anti-DNP-AF488 antibody degradation products were visualized by the iBright 1500 gel reader (ThermoFisher). Intracellular heavy and light chains of DNP-IgG are observed after 16 hours of uptake into HepG2 cells. […]

[11] = biological target: IgG; assay: Affinity to IgG by surface plasmon resonance (SPR); format: binding; conditions: SPR; read-out: IgG KD
Procedure: Immobilization levels ranging from 1000-1300 resonance units (RU) are obtained. The running buffer is 10 mM HEPES, pH 7.4, 400 mM NaCl, 0.005% P20, […].

T1 sequence (P01375 77-233 limits assumed): as the sequence (P01375 77-233 limits assumed) above

Structure (SMILES) | degradation of TNF over time (western blot) [1] | ASGPR mediated uptake of TNF (western blot) [2] | IC50 [3] [nM] | Kd [4] [nM] | ASGPR kd ([4]; Table 7) [s⁻¹] | degradation of IgG-AF488 (western blot) [5] | uptake of DNP-IgG (colocalization image) [6] | EC50 ([7]; EC50, half-maximal concentration with respect to the peak MFI (ternary complex formation), AF488-labeled DNP antibody, FIG. 1) [nM] | EC50 ([7]; Ternary Complex EC50 (nM), 100 nM AF488-labeled antibody, 1 hour at 4° C., class symbols) [nM] | EC50, half-maximal concentration with respect to the peak ratio of antibody-positive cells (cellular uptake) ([8]; DNP-antibody, HepG2 cells, FIG. 2) [nM] | EC50 ([8]; Homo sapiens, HepG2, 6 h, read-out: Uptake Assay EC50 (nM)) [nM] | Uptake of DNP-IgG and co-localization with lysosomal marker LAMP2 [9] | Loss of intact heavy chain of DNP-IgG observed after [10] [h] | Loss of intact light chain of DNP-IgG observed after [10] [h] | Kd [11] [nM] | EC50 ([7]; 100 nM AF488-labeled antibody, 1 hour at 4° C., class symbols, read-out: Ternary Complex EC50) [nM] | EC50 ([7]; ternary complex formation, read-out: TCF EC50) [nM] | EC50 ([8]; HepG2 cells, 100 nM AF488-labeled antibody, 37° C. for 6 hours, class symbols, read-out: Uptake Assay EC50) [nM] | EC50 ([8]; HepG2 cells, read-out: Uptake EC50) [nM] | Kd ([4]; read-out: ASGPR KD, SPR) [nM]
O=C(CCOCC(COCCC(=O)NCCOCCOCCOCCOC[C@H]1OC[C@H](Nc2nccc(C(F)(F)F)n2)[C@@H](O)[C@H]1O)NC(=O)COCCOCCOCC(=O)N1CCN(Cc2ccc(-c3c[nH]c4ccncc34)c(OCCc3ccc(-c4cccc5ccncc45)cc3)c2)CC1)NCCOCCOCCOCCOC[C@H]1OC[C@H](Nc2nccc(C(F)(F)F)n2)[C@@H](O)[C@H]1O [Compound 36, 3,3′-((2-(2-(2-(2-(2-(4-(3-(4-(isoquinolin-8-yl)phenethoxy)-4-(1H-pyrrolo[3,2-c]pyridin-3-yl)benzyl)piperazin-1-yl)-2-oxoethoxy)ethoxy)ethoxy)acetamido)propane-1,3-diyl)bis(oxy))bis(N-(1-((2R,3R,4R,5S)-3,4-dihydroxy-5-((4-(trifluoromethyl)pyrimidin-2-yl)amino)tetrahydro-2H-pyran-2-yl)-2,5,8,11-tetraoxatridecan-13-yl)propanamide)] | degradation of TNF | ASGPR mediated uptake of TNF | < 500 | < 1 | <0.01 |  |  |  |  |  |  |  |  |  |  |  |  |  |  | 
O=C(CCOCC(COCCC(=O)NCCOCCOCCOCCOC[C@H]1OC[C@@H](Nc2nc(Cl)ns2)[C@@H](O)[C@H]1O)NC(=O)COCCOCCOCCNc1ccc([N+](=O)[O-])cc1[N+](=O)[O-])NCCOCCOCCOCCOC[C@H]1OC[C@@H](Nc2nc(Cl)ns2)[C@@H](O)[C@H]1O [Compound 28, 3,3′-((2-(2-(2-(2-(2-((2,4-dinitrophenyl)amino)ethoxy)ethoxy)ethoxy)acetamido)propane-1,3-diyl)bis(oxy))bis(N-(1-((2R,3R,4R,5R)-5-((3-chloro-1,2,4-thiadiazol-5-yl)amino)-3,4-dihydroxytetrahydro-2H-pyran-2-yl)-2,5,8,11-tetraoxatridecan-13-yl)propanamide)] |  |  |  | < 100 |  | degradation of IgG-AF488 | uptake of DNP-IgG | 4.7 | < 100 | 3.8 | < 100 | DNP-IgG was taken up into the cells and co-localized with the lysosomal marker LAMP2 | 1 | 8 |  |  |  |  |  | 
CC(C)C[C@@H]1NC(=O)[C@H](Cc2cnc[nH]2)NC(=O)[C@H](Cc2c[nH]c3ccccc23)NC(=O)[C@H](C)NC(=O)[C@@H]2CSSC[C@H](NC(=O)[C@H](Cc3c[nH]c4ccccc34)NC(=O)[C@H](C(C)C)NC(=O)[C@H](CC(C)C)NC(=O)[C@H](CCC(=O)O)NC(=O)CNC1=O)C(=O)N[C@@H]([C@@H](C)O)C(=O)N1CCC[C@@H]1C(=O)N1C[C@@H](NC(=O)CCCc3cn(C[C@H]4OC[C@H](Nc5cncc(C(F)(F)F)n5)[C@@H](O)[C@H]4O)nn3)C[C@H]1C(=O)N[C@@H](CC(=O)O)C(=O)N2 [Compound 51] |  |  |  | < 100 |  |  |  |  |  |  |  |  |  |  | < 100 | < 100 | < 100 | < 100 | < 100 | < 100
